Measured values as given in patent publication US20080275022A1, “Substituted Quinazolones as Anti-Cancer Agents” (AstraZeneca AB, priority 2004, published 2008).

Target: human recombinant, purified wild type His-B-Raf protein kinase (Homo sapiens, UniProt P15056)
Test: B-Raf In Vitro ELISA Assay
Format: biochemical
Conditions: phosphorylation of MEK1; 2.5 nM B-Raf, 0.15 μM MEK1, 10 μM ATP; 1 hour preincubation at 25° C.
Description: B-Raf In Vitro ELISA Assay
Activity of human recombinant, purified wild type His-B-Raf protein kinase was determined in vitro using an enzyme-linked immunosorbent assay (ELISA) assay format, which measures phosphorylation of the B-Raf substrate, human recombinant, purified His-derived (detagged) MEK1. The reaction utilized 2.5 nM B-Raf, 0.15 μM MEK1 and 10 μM adenosine triphosphate (ATP) in 40 mM N-(2-hydroxyethyl)piperazine-N′-(2-ethanesulfonic acid hemisodium salt (HEPES), 5 mM 1,4-dithio-DL-threitol (DTT), 10 mM MgCl2, 1 mM ethylenediaminetetraacetic acid (EDTA) and 0.2 M NaCl (1×HEPES buffer), with or without compound at various concentrations, in a total reaction volume of 25 μl in 384 well plates. B-Raf and compound were preincubated in 1×HEPES buffer for 1 hour at 25° C. Reactions were initiated with addition of MEK1 and ATP in 1×HEPES buffer and incubated at 25° C. for 50 minutes and reactions stopped by addition of 10 μl 175 mM EDTA (final concentration 50 mM) in 1×HEPES buffer. 5 μl of the assay mix was then diluted 1:20 into 50 mM EDTA in 1×HEPES buffer, transferred to 384 well black high protein binding plates and incubated overnight at 4° C. Plates were washed in tris buffered saline containing 0.1% Tween20 (TBST), blocked with 50 μl Superblock (Pierce) for 1 hour at 25° C., washed in TBST, incubated with 50 μl rabbit polyclonal anti-phospho-MEK antibody (Cell Signaling) diluted 1:1000 in TBS for 2 hours at 25° C., washed with TBST, incubated with 50 μl goat anti-rabbit horseradish peroxidase-linked antibody (Cell Signaling) diluted 1:2000 in TBS for 1 hour at 25° C. and washed with TBST. 50 μl of fluorogenic peroxidase substrate (Quantablu—Pierce) was added and following incubation for 45-60 minutes, 50 ul QuantabluSTOP (Pierce) was added. Blue fluorescent product was detected at excitation 325 and emission 420 using a TECAN Ultra plate reader. Data was graphed and IC50s calculated using Excel Fit (Microsoft).

Chain of human recombinant, purified wild type His-B-Raf protein kinase (P15056 whole entry): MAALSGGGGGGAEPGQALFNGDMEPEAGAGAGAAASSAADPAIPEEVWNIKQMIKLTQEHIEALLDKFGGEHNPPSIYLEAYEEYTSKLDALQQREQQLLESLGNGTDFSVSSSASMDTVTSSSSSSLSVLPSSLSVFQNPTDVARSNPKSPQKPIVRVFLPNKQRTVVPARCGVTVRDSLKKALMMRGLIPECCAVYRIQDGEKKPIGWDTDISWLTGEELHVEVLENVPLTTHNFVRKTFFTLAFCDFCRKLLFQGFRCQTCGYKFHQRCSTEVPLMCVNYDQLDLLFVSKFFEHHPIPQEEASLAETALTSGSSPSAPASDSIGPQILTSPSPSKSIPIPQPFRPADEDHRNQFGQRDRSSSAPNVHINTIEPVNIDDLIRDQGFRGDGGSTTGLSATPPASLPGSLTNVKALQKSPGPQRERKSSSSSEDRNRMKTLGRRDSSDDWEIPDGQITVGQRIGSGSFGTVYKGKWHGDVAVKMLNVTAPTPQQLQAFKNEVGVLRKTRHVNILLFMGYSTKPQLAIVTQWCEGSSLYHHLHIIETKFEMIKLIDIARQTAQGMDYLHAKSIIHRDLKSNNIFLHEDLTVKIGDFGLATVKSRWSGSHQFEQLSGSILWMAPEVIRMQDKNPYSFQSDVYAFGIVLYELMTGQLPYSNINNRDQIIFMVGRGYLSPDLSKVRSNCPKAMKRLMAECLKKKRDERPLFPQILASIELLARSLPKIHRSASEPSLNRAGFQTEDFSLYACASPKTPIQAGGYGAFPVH

| Structure (SMILES) | IC50 [µM] |
| --- | --- |
| Cc1ccc(NC(=O)c2cccc(C(F)(F)F)c2)cc1-n1cnc2ccc(NCCCN(C)C)cc2c1=O [Example 9, N-{3-[6-(3-Dimethylaminopropylamino)-4-oxo-4H-quinazolin-3-yl]-4-methylphenyl}-3-trifluoromethylbenzamide] | 0.535 |
| Cc1ccc(NC(=O)c2cccc(C(F)(F)F)c2)cc1-n1c(C)nc2ccc(N3CCOCC3)cc2c1=O [Example 14, N-[4-Methyl-3-(2-methyl-6-morpholin-4-yl-4-oxo-4H-quinazolin-3-yl)phenyl]-3-trifluoromethylbenzamide] | 3.2 |
| Cc1ccc(NC(=O)c2cccc(C(F)(F)F)c2)cc1-n1cnc2ccc(OCCN3CCOCC3)cc2c1=O [Example 22, N-{4-Methyl-3-[6-(2-morpholinoethoxy)-4-oxo-4H-quinazolin-3-yl]phenyl}-3-trifluoromethylbenzamide] | 0.518 |
